Laboratory results from patent US10280149B2, “Therapeutic compounds and uses thereof” (GENENTECH, INC., priority 2015, dated 2019).

molecular target: Full length KDM2B (Homo sapiens (Human), UniProt Q8NHM5); assay: KDM2B TR-FRET assay for determining inhibitor IC50; format: biochemical; settings: TR-FRET (HTRF), biotin-H3K36me2 peptide substrate, 2-OG 0.3 μM or 6 μM
Text: KDM2B TR-FRET Assay for Determining Inhibitor IC50
The KDM2B TR-FRET Assay described above represents an additional embodiment of the invention.

Sequence of Full length KDM2B (Q8NHM5 whole entry): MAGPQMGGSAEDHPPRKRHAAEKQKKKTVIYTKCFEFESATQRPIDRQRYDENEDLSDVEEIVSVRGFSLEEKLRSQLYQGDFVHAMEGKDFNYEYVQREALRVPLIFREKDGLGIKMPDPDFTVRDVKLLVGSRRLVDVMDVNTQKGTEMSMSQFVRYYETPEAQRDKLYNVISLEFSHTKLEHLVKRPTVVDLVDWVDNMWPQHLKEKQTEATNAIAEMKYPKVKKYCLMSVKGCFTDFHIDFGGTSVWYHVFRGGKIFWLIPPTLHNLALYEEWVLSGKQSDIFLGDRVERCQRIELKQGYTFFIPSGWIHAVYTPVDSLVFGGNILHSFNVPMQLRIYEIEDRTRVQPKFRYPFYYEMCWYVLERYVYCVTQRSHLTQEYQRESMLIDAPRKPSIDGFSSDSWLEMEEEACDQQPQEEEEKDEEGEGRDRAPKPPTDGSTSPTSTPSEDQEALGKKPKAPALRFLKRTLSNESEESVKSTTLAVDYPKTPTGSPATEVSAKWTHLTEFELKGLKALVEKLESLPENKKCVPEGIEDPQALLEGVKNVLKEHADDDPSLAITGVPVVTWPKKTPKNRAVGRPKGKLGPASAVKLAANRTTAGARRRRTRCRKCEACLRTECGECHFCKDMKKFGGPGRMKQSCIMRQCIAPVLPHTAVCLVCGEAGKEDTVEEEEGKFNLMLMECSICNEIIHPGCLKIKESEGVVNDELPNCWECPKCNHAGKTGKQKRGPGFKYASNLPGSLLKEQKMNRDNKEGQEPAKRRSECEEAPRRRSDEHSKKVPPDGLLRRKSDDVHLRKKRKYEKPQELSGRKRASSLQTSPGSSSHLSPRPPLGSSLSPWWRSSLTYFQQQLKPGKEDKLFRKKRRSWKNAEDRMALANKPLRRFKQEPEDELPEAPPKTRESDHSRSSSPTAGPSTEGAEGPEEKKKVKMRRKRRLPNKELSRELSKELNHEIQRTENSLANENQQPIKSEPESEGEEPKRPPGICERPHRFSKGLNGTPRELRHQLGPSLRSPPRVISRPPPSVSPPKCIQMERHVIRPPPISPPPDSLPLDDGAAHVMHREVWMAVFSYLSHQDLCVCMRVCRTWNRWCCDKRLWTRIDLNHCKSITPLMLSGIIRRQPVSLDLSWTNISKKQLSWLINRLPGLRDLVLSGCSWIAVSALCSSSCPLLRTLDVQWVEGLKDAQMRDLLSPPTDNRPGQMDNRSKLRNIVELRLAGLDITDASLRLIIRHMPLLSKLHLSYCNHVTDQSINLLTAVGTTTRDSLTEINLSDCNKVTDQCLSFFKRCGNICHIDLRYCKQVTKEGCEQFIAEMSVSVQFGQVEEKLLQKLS

For `COc1ccc2cc(C(=O)C3CCCN(C4CCC4)C3)ccc2c1CC#N` (stereo not drawn) [Example 55, 2-[6-(1-cyclobutylpiperidine-3-carbonyl)-2-methoxy-1-naphthyl]acetonitrile], which IC50 is on record?
Its IC50 is 13.2 nM.

`CCCN1CCCC(C(=O)c2ccc3c(CC#N)c(OC)ccc3c2)C1` (stereo not drawn) [Example 56, 2-[2-methoxy-6-(1-propylpiperidine-3-carbonyl)-1-naphthyl]acetonitrile] was tested. Which IC50 did it give?
Its IC50 is 270 nM.

For `O=C(c1cc(CO)c2ccccc2c1)C1CCCN(C2CCCC2)C1` (stereo not drawn) [Example 57, (1-cyclopentyl-3-piperidyl)-[4-(hydroxymethyl)-2-naphthyl]methanone], which IC50 is on record?
The IC50 was 125 nM.

With `O=C(c1cc(CO)c2ccccc2c1)C1CCCN(C2CCC2)C1` (stereo not drawn) [Example 58, (1-cyclobutyl-3-piperidyl)-[4-(hydroxymethyl)-2-naphthyl]methanone] as the molecule, how does the IC50 read?
The IC50 was 47.6 nM.

For `Cc1cccc2ccc(C(=O)C3CCCN(CC4CC4)C3)cc12` (stereo not drawn) [Example 59, [1-(cyclopropylmethyl)-3-piperidyl]-(8-methyl-2-naphthyl)methanone], which IC50 is on record?
The IC50 was 169 nM.

Which IC50 does the source give for `CCCN1CCCC(C(=O)c2ccc3cccc(C)c3c2)C1` (stereo not drawn) [Example 60, (8-methyl-2-naphthyl)-(1-propyl-3-piperidyl)methanone] here?
The IC50 was 125 nM.

For `Cc1cccc2ccc(C(=O)C3CCCN(C4CCCC4)C3)cc12` (stereo not drawn) [Example 61, (1-cyclopentyl-3-piperidyl)-(8-methyl-2-naphthyl)methanone], which IC50 is on record?
The IC50 was 174 nM.

`Cc1cccc2ccc(C(=O)C3CCCN(C4CCC4)C3)cc12` (stereo not drawn) [Example 62, (1-cyclobutyl-3-piperidyl)-(8-methyl-2-naphthyl)methanone] was tested. Which IC50 did it give?
The IC50 was 103 nM.

How did the IC50 turn out when `CC(O)c1cc(C(=O)C2CCCN(C3CCCC3)C2)cc2ccccc12` (stereo not drawn) [Example 63, (1-cyclopentyl-3-piperidyl)-[4-(1-hydroxyethyl)-2-naphthyl]methanone] was run?
The IC50 was 150 nM.

How did the IC50 turn out when `CC(O)c1cc(C(=O)C2CCCN(C3CCC3)C2)cc2ccccc12` (stereo not drawn) [Example 64, (1-cyclobutyl-3-piperidyl)-[4-(1-hydroxyethyl)-2-naphthyl]methanone] was run?
The IC50 was 43.8 nM.

For `COc1ccc2cc(C(=O)C3CCCN(C4CC(C#N)C4)C3)ccc2c1` (stereo not drawn) [Example 65, 3-[3-(6-methoxynaphthalene-2-carbonyl)-1-piperidyl]cyclobutanecarbonitrite], which IC50 is on record?
The IC50 was 309 nM.

How did the IC50 turn out when `COc1ccc2cc(C(=O)C3CCCN(C4CC(F)(F)C4)C3)ccc2c1` (stereo not drawn) [Example 66, [1-(3,3-difluorocyclobutyl)-3-piperidyl]-(6-methoxy-2-naphthyl)methanone] was run?
Its IC50 is 67.5 nM.

With `CC(O)c1cc(C(=O)C2CCCN(CC3CC3)C2)cc2ccccc12` (stereo not drawn) [Example 67, [1-(cyclopropylmethyl)-3-piperidyl]-[4-(1-hydroxyethyl)-2-naphthyl]methanone] as the molecule, how does the IC50 read?
The IC50 was 148 nM.

For `CCCN1CCCC(C(=O)c2cc(C(C)O)c3ccccc3c2)C1` (stereo not drawn) [Example 68, [4-(1-hydroxyethyl)-2-naphthyl]-(1-propyl-3-piperidyl)methanone], which IC50 is on record?
Its IC50 is 76.2 nM.

For `COc1ccc2cc(C(=O)C3CCCN(CC4CCC4)C3)ccc2c1` (stereo not drawn) [Example 69, [1-(cyclobutylmethyl)-3-piperidyl]-(6-methoxy-2-naphthyl)methanone], which IC50 is on record?
The IC50 was 150 nM.

With `CCCN1CCCC(C(=O)c2ccc3c(C)c(C#N)ccc3c2)C1` (stereo not drawn) [Example 70, 1-methyl-6-(1-propylpiperidine-3-carbonyl)-2-naphthonitrile] as the molecule, how does the IC50 read?
The IC50 was 91.8 nM.

For `Cc1c(C#N)ccc2cc(C(=O)C3CCCN(CC4CC4)C3)ccc12` (stereo not drawn) [Example 71, 6-(1-(cyclopropylmethyl)piperidine-3-carbonyl)-1-methyl-2-naphthonitrile], which IC50 is on record?
Its IC50 is 132 nM.

`Cc1c(C#N)ccc2cc(C(=O)C3CCCN(C4CCC4)C3)ccc12` (stereo not drawn) [Example 72, 6-(1-cyclobutylpiperidine-3-carbonyl)-1-methyl-2-naphthonitrile] was tested. Which IC50 did it give?
The IC50 was 87.5 nM.

Which IC50 does the source give for `Cc1c(C#N)ccc2cc(C(=O)C3CCCN(C4CCCC4)C3)ccc12` (stereo not drawn) [Example 73, 6-(1-cyclopentylpiperidine-3-carbonyl)-1-methyl-2-naphthonitrile] here?
The IC50 was 327 nM.

For `CCN1CCCC(C(=O)c2ccc3cc(OC)ccc3c2)C1` (stereo not drawn) [Example 74, (1-ethyl-3-piperidyl)-(6-methoxy-2-naphthyl)methanone], which IC50 is on record?
The IC50 was 1150 nM.

`COc1ccc2cc(C(=O)C3CCCN(C4CCC4)C3)ccc2c1` (stereo not drawn) [Example 76, (1-cyclobutyl-3-piperidyl)-(6-methoxy-2-naphthyl)methanone] was tested. Which IC50 did it give?
The IC50 was 619 nM.

With `COc1ccc2cc(C(=O)C3CCCN(CC4CC4)C3)ccc2c1` (stereo not drawn) [Example 77, [1-(cyclopropylmethyl)-3-piperidyl]-(6-methoxy-2-naphthyl)methanone] as the molecule, how does the IC50 read?
Its IC50 is 208 nM.

With `COCCN1CCCC(C(=O)c2ccc3cc(OC)ccc3c2)C1` (stereo not drawn) [Example 78, [1-(2-methoxyethyl)-3-piperidyl]-(6-methoxy-2-naphthyl)methanone] as the molecule, how does the IC50 read?
The IC50 was 2400 nM.

`COc1ccc2cc(C(=O)C3CCCN(CCF)C3)ccc2c1` (stereo not drawn) [Example 79, [1-(2-fluoroethyl)-3-piperidyl]-(6-methoxy-2-naphthyl)methanone] was tested. Which IC50 did it give?
The IC50 was 1800 nM.

Which IC50 does the source give for `COc1ccc2cc(C(=O)C3CCCN(C(C)C)C3)ccc2c1` (stereo not drawn) [Example 81, (1-isopropyl-3-piperidyl)-(6-methoxy-2-naphthyl)methanone] here?
Its IC50 is 6500 nM.

`COc1ccc2cc(C(=O)C3CCCN(CCC#N)C3)ccc2c1` (stereo not drawn) [Example 84, 3-[3-(6-methoxynaphthalene-2-carbonyl)-1-piperidyl]propanenitrile] was tested. Which IC50 did it give?
The IC50 was 709 nM.

With `CCCN1CCCC(C(=O)c2cccc(N(C)C)c2)C1` (stereo not drawn) [Example 90, [3-(dimethylamino)phenyl]-(1-propyl-3-piperidyl)methanone] as the molecule, how does the IC50 read?
The IC50 was 1600 nM.

With `CCCN1CCCC(C(=O)c2ccc(Cl)cc2)C1` (stereo not drawn) [Example 91, (4-chlorophenyl)-(1-propyl-3-piperidyl)methanone] as the molecule, how does the IC50 read?
Its IC50 is 1600 nM.

How did the IC50 turn out when `CCCN1CCCC(C(=O)c2cccc(Cl)c2)C1` (stereo not drawn) [Example 92, (3-chlorophenyl)-(1-propyl-3-piperidyl)methanone] was run?
The IC50 was 723 nM.

For `CCCN1CCCC(C(=O)c2ccc3c(cnn3C)c2)C1` (stereo not drawn) [Example 94, (1-methylindazol-5-yl)-(1-propyl-3-piperidyl)methanone], which IC50 is on record?
The IC50 was 122 nM.

With `CCCN1CCCC(C(=O)c2cccc(OCc3ccccc3)c2)C1` (stereo not drawn) [Example 95, (3-benzyloxyphenyl)-(1-propyl-3-piperidyl)methanone] as the molecule, how does the IC50 read?
Its IC50 is 823 nM.

For `CCCN1CCCC(C(=O)c2ccc(OC)cc2)C1` (stereo not drawn) [Example 97, (4-methoxyphenyl)-(1-propyl-3-piperidyl)methanone], which IC50 is on record?
Its IC50 is 930 nM.

For `CCCN1CCCC(C(=O)c2cccc(OC)c2)C1` (stereo not drawn) [Example 98, (3-methoxyphenyl)-(1-propyl-3-piperidyl)methanone], which IC50 is on record?
The IC50 was 1600 nM.

How did the IC50 turn out when `CCCN1CCCC(C(=O)c2ccccc2OC)C1` (stereo not drawn) [Example 99, (2-methoxyphenyl)-(1-propyl-3-piperidyl)methanone] was run?
Its IC50 is 5500 nM.

For `CCCN1CCCC(C(=O)c2ccc(C(F)(F)F)cc2)C1` (stereo not drawn) [Example 100, (1-propyl-3-piperidyl)-[4-(trifluoromethyl)phenyl]methanone], which IC50 is on record?
Its IC50 is 1200 nM.

Which IC50 does the source give for `CCCN1CCCC(C(=O)c2ccc(Cl)c(Cl)c2)C1` (stereo not drawn) [Example 101, (3,4-dichlorophenyl)-(1-propyl-3-piperidyl)methanone] here?
The IC50 was 279 nM.

`CCCN1CCCC(C(=O)c2ccccc2-c2ccccc2)C1` (stereo not drawn) [Example 102, (2-phenylphenyl)-(1-propyl-3-piperidyl)methanone] was tested. Which IC50 did it give?
Its IC50 is 5800 nM.

`CCCN1CCCC(C(=O)c2ccc(OC(F)(F)F)cc2)C1` (stereo not drawn) [Example 103, (1-propyl-3-piperidyl)-[4-(trifluoromethoxy)phenyl]methanone] was tested. Which IC50 did it give?
Its IC50 is 2000 nM.

With `CCCN1CCCC(C(=O)c2ccc(OC)c(OC)c2)C1` (stereo not drawn) [Example 104, (3,4-dimethoxyphenyl)-(1-propyl-3-piperidyl)methanone] as the molecule, how does the IC50 read?
Its IC50 is 744 nM.

`CCCN1CCCC(C(=O)c2cc(OC)cc(OC)c2)C1` (stereo not drawn) [Example 105, (3,5-dimethoxyphenyl)-(1-propyl-3-piperidyl)methanone] was tested. Which IC50 did it give?
Its IC50 is 272 nM.

For `CCCN1CCCC(C(=O)c2ccc(C)c(C)c2)C1` (stereo not drawn) [Example 106, (3,4-dimethylphenyl)-(1-propyl-3-piperidyl)methanone], which IC50 is on record?
The IC50 was 247 nM.

How did the IC50 turn out when `CCCN1CCCC(C(=O)c2ccc3c(c2)CCCC3)C1` (stereo not drawn) [Example 107, (1-propyl-3-piperidyl)-tetralin-6-yl-methanone] was run?
The IC50 was 99.8 nM.

For `CCCN1CCCC(C(=O)c2ccc3c(c2)OCCO3)C1` (stereo not drawn) [Example 108, 2,3-dihydro-1,4-benzodioxin-6-yl-(1-propyl-3-piperidyl)methanone], which IC50 is on record?
The IC50 was 297 nM.

Which IC50 does the source give for `O=C(c1ccc2c(Oc3ccccc3)cccc2c1)C1CCCN(CC2CC2)C1` (stereo not drawn) [Example 112, (1-(cyclopropylmethyl)piperidin-3-yl)(5-phenoxynaphthalen-2-yl)methanone] here?
Its IC50 is 175 nM.

For `O=C(c1ccccc1Cl)C1CCCN(CC2CC2)C1` (stereo not drawn) [Example 113, (2-chlorophenyl)(1-(cyclopropylmethyl)piperidin-3-yl)methanone], which IC50 is on record?
The IC50 was 5400 nM.

`COc1cccc2cc(C(=O)C3CCCN(CC4CC4)C3)ccc12` (stereo not drawn) [Example 114, (1-(cyclopropylmethyl)piperidin-3-yl)(5-methoxynaphthalen-2-yl)methanone] was tested. Which IC50 did it give?
The IC50 was 220 nM.

For `Cc1c(C(=O)C2CCCN(CC3CC3)C2)ccc2ccccc12` (stereo not drawn) [Example 115, (1-(cyclopropylmethyl)piperidin-3-yl)(1-methylnaphthalen-2-yl)methanone], which IC50 is on record?
The IC50 was 439 nM.

`Cn1ccc2ccc(C(=O)C3CCCN(CC4CC4)C3)cc21` (stereo not drawn) [Example 119, (1-(cyclopropylmethyl)piperidin-3-yl)(1-methyl-1H-indol-6-yl)methanone] was tested. Which IC50 did it give?
The IC50 was 2300 nM.

How did the IC50 turn out when `O=C(c1cc2ccccc2s1)C1CCCN(CC2CC2)C1` (stereo not drawn) [Example 120, Benzo[b]thiophen-2-yl(1-(cyclopropylmethyl)piperidin-3-yl)methanone] was run?
The IC50 was 389 nM.

How did the IC50 turn out when `COc1cc2ccc(C(=O)C3CCCN(CC4CC4)C3)cc2cn1` (stereo not drawn) [Example 121, (1-(cyclopropylmethyl)piperidin-3-yl)(3-methoxyisoquinolin-7-yl)methanone] was run?
The IC50 was 380 nM.

`COc1ccc2cc(C(=O)C3CCCN(CC4CC4)C3)ccc2n1` (stereo not drawn) [Example 122, (1-(cyclopropylmethyl)piperidin-3-yl)(2-methoxyquinolin-6-yl)methanone] was tested. Which IC50 did it give?
The IC50 was 205 nM.
